In US10085449B2, “N-[1-((6-chloropyridin-3-yl)methyl)pyridin-2(1H)-ylidene]-2,2,2- trifluoroacetamide for control of agricultural/horticultural pests” (priority 2010, dated 2018):
Read-outs that look alike come from different tables or passages of the source.

How the values were obtained:
common cutworm = assay: whole plant or invertebrate; format: in vivo; conditions: for Insecticidal effects (mortality), common cutworm third-instar larvae: foliar application
Summary of the method: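 Cabbage leaf discs (5.0 cm) sprayed with compound at a set concentration in 50% acetone/water with 0.05% Tween 20, air dried, then infested with third-instar larvae. Held at 25° C., 16 h light/8 h dark; dead and live larvae counted after 3 days, two replicates, mortality (%) = dead/(live+dead)×100.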

cotton aphid = assay: whole plant or invertebrate; format: in vivo; conditions: Aphis gossypii, foliar
Summary of the method: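 Cucumber leaf discs (2.0 cm) sprayed with compound in 50% acetone/water with 0.05% Tween 20, air-dried, then infested with first-instar cotton aphids. Held at 25 °C under 16 h light/8 h dark; mortality counted after 3 days, two replicates.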

small brown planthopper [1] = assay: whole plant or invertebrate; format: in vivo; conditions: Laodelphax striatellus, foliar
Method: (§1) Rice seedlings grown in pots were subjected to the foliar application of solutions of the inventive compounds at a predetermined concentration prepared to 50% acetone/water (containing 0.05% Tween 20). The treated seedlings were air dried, following which second-instar larvae were released onto the seedlings. The seedlings and larvae were then held in an incubation chamber at 25° C. (16-hour period of light, 8-hour dark period). Three days after released, the numbers of live and dead insects were counted, and the mortality was calculated from the following formula. This was a two-replication test. Mortality (%)=[number of dead insects/(number of live insects+number of dead insects)]×100

green rice leafhopper = assay: Green rice leafhopper control test (foliar application); format: in vivo; conditions: Nephotettix cincticeps, 96 h
Method: as §1, with “Four” for “Three”

greenhouse whitefly = assay: whole plant or invertebrate; format: in vivo; conditions: Cucumis sativus, foliar, 336 h
Method: Adult greenhouse whiteflies were released onto cucumber plants grown in pots, and allowed to laid eggs overnight. One day after the start of oviposition, the adults were removed, and the plants and eggs were held in an incubation chamber at 25° C. (16-hour period of light, 8-hour dark period). Three days after the end of oviposition, leaf discs 2.0 cm in diameter were cut from the cucumber plants and, after confirming oviposition thereon, the leaf discs were sprayed with solutions of the inventive compounds at a predetermined concentration prepared to 50% acetone/water (containing 0.05% Tween 20). After spraying, the treated leaf discs were held in an incubation chamber at 25° C. (16-hour period of light, 8-hour dark period). Fourteen days after spraying, the numbers of live and dead insects were counted, and the mortality was calculated from the following formula. This was a two-replication test. Mortality (%)=[(number of oviposited eggs−number of live insects)/number of oviposited eggs]×100

brown-winged green bug = assay: Brown-winged green bug control test; format: in vivo; conditions: 50 ppm foliar application on young apples, adults, 6 days after release
Method: Young apples that had been collected in the field were sprayed with solutions of the inventive compounds at a predetermined concentration prepared to 50% acetone/water (containing 0.05% Tween 20). The treated fruits were air-dried, placed in plastic cups and two adult brown-winged green bugs were released into each cup. Following release of the insects, the fruits and insects were held in an incubation chamber at 25° C. (16-hour period of light, 8-hour dark period). Six days after released, the numbers of live and dead insects were counted, and the mortality was calculated from the following formula. Mortality (%)=[number of dead insects/(number of live insects+number of dead insects)]×100

small brown planthopper [2] = assay: whole plant or invertebrate; format: in vivo; conditions: Laodelphax striatellus, 72 h
Summary of the method: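 Rice seedlings in pots soil-drenched with compound at a set concentration in 10% acetone/water; ten second-instar larvae released per seedling 3 days later. Held at 25° C. (16 h light/8 h dark) and scored live/dead 3 days after release. Mortality (%) = dead/(live+dead)×100; two replications.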

[3] = system: Haemaphysalis longicornis; assay: Tick (Haemaphysalis longicornis) control test on body surface of mouse; format: in vivo, Haemaphysalis longicornis on mice (ICR); conditions: 20 μL of 1,000-fold dilution of agent prepared as in Formulation Example 11 on mouse body surface, larval ticks, 3 days after release
Method: Ventral fur was shaved from an area having a diameter of about 2 cm in mice (ICR, 5-week-old males), and a 15 mL polystyrene conical tube cut to a length of about 1.5 cm was attached to the shaved area using instant glue.
An amount of 20 μL of a 1,000-fold dilution of the pest control agent prepared in the same way as in Formulation Example 11 was added dropwise onto the body surface of the mice within the attached tube. After the solution was allowed to dry thoroughly, ten or more larval ticks (Haemaphysalis longicornis) were released into the tube, which was then capped. Three days after released, the numbers of live and dead ticks were counted, and the mortality was calculated from the following formula. Blood-feeding inhibition (%)=100−[number of feeding ticks/(number of live ticks+number of dead ticks)]×100

[4] = read-out: Insecticidal effects (mortality), cotton aphid first-instar larvae
[5] = read-out: Insecticidal effects (mortality), small brown planthopper second-instar larvae
[6] = soil, read-out: Insecticidal effects (mortality), small brown planthopper second-instar larvae

O=C(N=c1ccccn1Cc1ccc(Cl)nc1)C(F)(F)F [Compound 212, N-[1-((6-chloropyridin-3-yl)methyl)pyridin-2(1H)-ylidene]-2,2,2-trifluoroacetamide]
100: Insecticidal effects (mortality), common cutworm third-instar larvae (common cutworm; 500 ppm)
91%: Blood-feeding inhibition [3]
100%: mortality at 1.25 ppm (cotton aphid; [4]) | mortality at 20 ppm (cotton aphid; [4]) | mortality at 100 ppm (cotton aphid; [4]) | mortality at 500 ppm (cotton aphid; [4]) | mortality at 1.25 ppm (small brown planthopper [1]; [5]) | mortality at 5 ppm (small brown planthopper [1]; [5]) | pest or weed control at 0.01 mg/pot (small brown planthopper [2]; rice soil drenching, 0.01 mg/pot (Table 13), read-out: Small brown planthopper (rice soil drenching), effect) | pest or weed control at 0.05 mg/pot (small brown planthopper [2]; rice soil drenching, 0.05 mg/pot (Table 13), read-out: Small brown planthopper (rice soil drenching), effect) | mortality at 0.01 mg/pot (small brown planthopper [2]; [6]) | mortality at 0.05 mg/pot (small brown planthopper [2]; [6])
85%: pest or weed control at 0.002 mg/pot (small brown planthopper [2]; rice soil drenching, 0.002 mg/pot (Table 13), read-out: Small brown planthopper (rice soil drenching), effect) | mortality at 0.002 mg/pot (small brown planthopper [2]; [6])
30: Insecticidal effects (mortality), common cutworm third-instar larvae (common cutworm; 100 ppm)
≥ 80%: mortality at 500 ppm (common cutworm; foliar, 72 h) | mortality at 20 ppm (cotton aphid; in Cucumis sativus, 72 h) | mortality at 100 ppm (cotton aphid; in Cucumis sativus, 72 h) | mortality at 500 ppm (cotton aphid; in Cucumis sativus, 72 h) | mortality at 100 ppm (small brown planthopper [1]; in Oryza sativa, 72 h) | mortality at 100 ppm (green rice leafhopper) | mortality at 100 ppm (greenhouse whitefly) | mortality at 0.05 mg/seedling (small brown planthopper [2]; soil)
75%: mortality at 0.313 ppm (small brown planthopper [1]; [5])
95%: mortality at 5 ppm (cotton aphid; [4]) | pest or weed control at 0.005 mg/pot (small brown planthopper [2]; rice soil drenching, 0.005 mg/pot (Table 13), read-out: Small brown planthopper (rice soil drenching), effect) | mortality at 0.005 mg/seedling (small brown planthopper [2]; soil) | mortality at 0.005 mg/pot (small brown planthopper [2]; [6])
at least 80%: Mortality (brown-winged green bug)
